{
  "source": "patent US20140228287A1",
  "about": "“1-[(3-CYANO-PYRIDIN-2-YL)METHYL]-3-METHYL-7-(2-BUTYN-1-YL)-8-[3-(R)-AMINO-PIPERIDIN-1-YL]-AXANTHINE FOR THE TREATMENT OF A METABOLIC DISORDER OF A PREDOMINANTLY CARNIVOROUS NON-HUMAN ANIMAL” (BOEHRINGER INGELHEIM VETMEDICA GMBH, priority 2010, published 2014)",
  "key": {"[1]": {"test_system": "normoglycaemic C57B1/6J mice", "assay": "Oral glucose tolerance test (acute and delayed) in normoglycaemic mice", "format": "in vivo, mouse", "settings": "for ED50: Mus musculus, po, read-out: ED50 for lowering the glucose AUC", "procedure": "The effect of 1-[(3-cyano-pyridin-2-yl)methyl]-3-methyl-7-(2-butyn-1-yl)-8-[3-(R)-amino-piperidin-1-yl]-xanthine on glucose tolerance in normoglycaemic C57B1/6J mice was assessed according to the following protocol of an oral glucose tolerance test (OGTT).\nMale C57B1/6J mice (C57BL/6J@Rj) were obtained from Janvier (France). Animals were fed ad libitum with a standard pelleted diet (Diet No. 3438 [containing 19% protein, 4.5% fat], Provimi Kliba, Switzerland) and had free access to water. Animals were individually housed with a 12 h/12 h light/dark cycle (lights out between 6 p.m. and 6 a.m.). The mice were used for the experiments at 9 weeks of age.\nFor the determination of the acute oral glucose tolerance test, a basal blood sample (pre-dose) was obtained in the morning from overnight fasted C57B1/6J mice (n=7 per group) by cutting the tip of the tail without anaesthesia. Subsequently, the groups received a single oral administration of either vehicle or 1-[(3-cyano-pyridin-2-yl)methyl]-3-methyl-7-(2-butyn-1-yl)-8-[3-(R)-amino-piperidin-1-yl]-xanthine monohydrochloride at doses between 0.1 and 10 mg/kg bw, followed 45 min later by an oral administration of a glucose solution (2 g/kg bw, application volume 10 ml/kg bw). Additional blood samples were taken from the tip of the tail 30 min, 60 min, 90 min, 120 min, and 180 min after the glucose load, and blood glucose was measured. A final blood sample was drawn from the retrobulbal venous plexus under isoflurane anaesthesia 30 minutes after the last bleeding from the tail. EDTA plasma was prepared from this blood sample and frozen for determination of DPP-IV activity.\nFor the determination of the delayed oral glucose tolerance test, C57B1/6J mice (n=5 per group) were orally administered with either vehicle or 1-[(3-cyano-pyridin-2-yl)methyl]-3-methyl-7-(2-butyn-1-yl)-8-[3-(R)-amino-piperidin-1-yl]-xanthine monohydrochloride at doses between 0.1 and 10 mg/kg bw in the afternoon before the oral glucose tolerance test. […] Additional blood samples were taken from the tip of the tail 30 min, 60 min, 90 min, 120 min, and 180 min after the glucose load, and blood glucose was measured. […]\nThe two-sided unpaired Student t-test was used for statistical comparison of the control group and the active groups with the 5% level as the limit of statistical significance (*, P <0.05; **, P<0.01; ***, P<0.001). […] Changes from baseline (pre-dose value) within each group were analyzed by a paired Student t-test.\nThe area under the curve (AUC) for the time course of blood glucose concentrations during an OGTT was calculated by the trapezoidal rule after correction for the baseline values.\nED50 values were calculated by nonlinear regression analysis with a Hill coefficient of 1. […]"}, "[2]": {"test_system": "insulin-resistant fa/fa rats", "assay": "Delayed OGTT in insulin-resistant fa/fa rats", "format": "in vivo, rat", "settings": "3 mg/kg 16 h before OGTT", "procedure": "Male Zucker Fatty (fa/fa) rats (Ico-Zucker-fa/fa (Orl)) were obtained from Iffa (France). Animals were fed ad libitum with a standard pelleted diet (Diet No. 3438, Provimi Kliba, Switzerland) and had free access to water. Animals were housed in groups with a 12 h/12 h light/dark cycle (lights out between 6 p.m. and 6 a.m.). The rats were used for the experiments between 7 and 12 weeks of age.\nfa/fa rats (n=6 per group) were treated like the mice in Example 3, delayed OGTT. 1-[(3-cyano-pyridin-2-yl)methyl]-3-methyl-7-(2-butyn-1-yl)-8-[3-(R)-amino-piperidin-1-yl]-xanthine was dosed at 3 mg/kg 16 hours before the OGTT.\nGLP-1 was measured using a commercially available GLP-1 (active) ELISA Kit (Catalog# EGLP-35K, Linco Research Inc., St. Charles/Mo., USA). Insulin was measured using a commercially available Rat Insulin ELISA Kit (Catalog#90060, Crystal Chem. Inc., Downers Grove/IL, USA)."}, "plasma DPP IV": {"target": "T1, plasma DPP IV (Mus musculus, UniProt P28843)", "T1 construct": "from tissue; host or cells: mouse plasma", "T1 sequence (P28843 37-760 limits assumed)": "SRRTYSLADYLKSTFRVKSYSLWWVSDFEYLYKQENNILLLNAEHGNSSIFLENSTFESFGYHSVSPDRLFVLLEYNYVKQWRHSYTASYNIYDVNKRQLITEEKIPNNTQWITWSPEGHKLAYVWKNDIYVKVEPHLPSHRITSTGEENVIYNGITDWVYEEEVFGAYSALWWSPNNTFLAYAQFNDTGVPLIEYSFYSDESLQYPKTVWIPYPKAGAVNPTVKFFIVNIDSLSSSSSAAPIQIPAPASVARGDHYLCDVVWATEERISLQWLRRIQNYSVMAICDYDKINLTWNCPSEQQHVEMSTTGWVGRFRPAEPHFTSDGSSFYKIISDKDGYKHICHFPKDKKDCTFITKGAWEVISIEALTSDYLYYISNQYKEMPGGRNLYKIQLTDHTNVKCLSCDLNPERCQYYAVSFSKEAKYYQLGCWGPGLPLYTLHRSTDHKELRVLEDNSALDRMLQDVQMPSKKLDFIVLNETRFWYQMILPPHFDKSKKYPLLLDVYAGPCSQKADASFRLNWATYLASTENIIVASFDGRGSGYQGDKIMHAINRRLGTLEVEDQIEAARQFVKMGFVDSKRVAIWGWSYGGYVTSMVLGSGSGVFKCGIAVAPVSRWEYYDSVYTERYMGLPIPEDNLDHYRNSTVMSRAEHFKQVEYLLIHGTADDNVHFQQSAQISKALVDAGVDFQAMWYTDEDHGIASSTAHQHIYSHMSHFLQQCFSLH", "assay": "Inhibition of plasma DPP IV activity in vitro, mouse plasma", "format": "biochemical", "procedure": "Studies were also conducted to assess the inhibitory effect of this compound on plasma DPP IV activity in several species."}},
  "note": "pIC50: −log10 of the molar value. Structures can show the parent of a compound that is named as a salt. Where two headings read alike, the source gives them in different places.",
  "data": [
    {"smiles": "CC#CCn1c(N2CCC[C@@H](N)C2)nc2c1c(=O)n(Cc1ncccc1C#N)c(=O)n2C", "note": "[1-[(3-cyano-pyridin-2-yl)methyl]-3-methyl-7-(2-butyn-1-yl)-8-[3-(R)-amino-piperidin-1-yl]-xanthine monohydrochloride]", "values": [
      {"measurement": "reduction of AUC for glucose excursion in OGTT", "setting": "[1]; 1 mg/kg 16 hours before OGTT (delayed setting)", "result": 29, "unit": "%"},
      {"measurement": "ED50", "setting": "[1]; acute setting", "result": 0.2, "unit": "mg/kg"},
      {"measurement": "ED50", "setting": "[1]; delayed setting", "result": 0.3, "unit": "mg/kg"},
      {"measurement": "suppression of AUC for glucose excursion in OGTT", "setting": "[1]; acute dosing of 1 mg/kg", "result": 38, "unit": "%"},
      {"measurement": "GLP-1 levels vs. control group", "setting": "[2]", "result": "elevated vs. the control group at all time points"},
      {"measurement": "Glucose AUC 0-90 min, Change versus control, Mean Diff. %", "setting": "[2]", "result": "−34.4", "unit": "%"},
      {"measurement": "Glucose AUC 0-90 min, Mean", "setting": "[2]", "result": 177.00, "unit": "mM·min"},
      {"measurement": "Glucose AUC 0-90 min, Median", "setting": "[2]", "result": 165.00, "unit": "mM·min"},
      {"measurement": "peak plasma insulin levels compared to vehicle treatment", "setting": "[2]", "result": "further elevations in peak plasma insulin levels"},
      {"measurement": "reduction of area under the glucose excursion curve", "setting": "[2]", "result": 34.4, "unit": "%"},
      {"measurement": "rise of GLP-1 levels vs. baseline after the glucose stimulus", "setting": "[2]", "result": 93, "unit": "%"},
      {"measurement": "Glucose, Change versus baseline, Mean Diff. %", "setting": "[2]; 30 min", "result": 71.7, "unit": "%"},
      {"measurement": "Glucose, Change versus control, Mean Diff. %", "setting": "[2]; 30 min", "result": "−29.0", "unit": "%"},
      {"measurement": "Glucose, Mean", "setting": "[2]; 30 min", "result": 7.90, "unit": "mM"},
      {"measurement": "Glucose, Median", "setting": "[2]; 30 min", "result": 8.00, "unit": "mM"},
      {"measurement": "Glucose, Change versus baseline, Mean Diff. %", "setting": "[2]; 60 min", "result": 39.1, "unit": "%"},
      {"measurement": "Glucose, Change versus control, Mean Diff. %", "setting": "[2]; 60 min", "result": "−23.0", "unit": "%"},
      {"measurement": "Glucose, Mean", "setting": "[2]; 60 min", "result": 6.40, "unit": "mM"},
      {"measurement": "Glucose, Median", "setting": "[2]; 60 min", "result": 6.30, "unit": "mM"},
      {"measurement": "Glucose, Change versus baseline, Mean Diff. %", "setting": "[2]; 90 min", "result": 34.8, "unit": "%"},
      {"measurement": "Glucose, Change versus control, Mean Diff. %", "setting": "[2]; 90 min", "result": "−2.1", "unit": "%"},
      {"measurement": "Glucose, Mean", "setting": "[2]; 90 min", "result": 6.20, "unit": "mM"},
      {"measurement": "Glucose, Median", "setting": "[2]; 90 min", "result": 6.30, "unit": "mM"},
      {"measurement": "Glucose, Change versus baseline, Mean Diff. %", "setting": "[2]; 120 min", "result": 31.3, "unit": "%"},
      {"measurement": "Glucose, Change versus control, Mean Diff. %", "setting": "[2]; 120 min", "result": 5.7, "unit": "%"},
      {"measurement": "Glucose, Mean", "setting": "[2]; 120 min", "result": 6.04, "unit": "mM"},
      {"measurement": "Glucose, Median", "setting": "[2]; 120 min", "result": 5.70, "unit": "mM"},
      {"measurement": "Glucose, Change versus baseline, Mean Diff. %", "setting": "[2]; 180 min", "result": 29.6, "unit": "%"},
      {"measurement": "Glucose, Change versus control, Mean Diff. %", "setting": "[2]; 180 min", "result": 13.2, "unit": "%"},
      {"measurement": "Glucose, Mean", "setting": "[2]; 180 min", "result": 5.96, "unit": "mM"},
      {"measurement": "Glucose, Median", "setting": "[2]; 180 min", "result": 6.10, "unit": "mM"},
      {"measurement": "Glucose, Change versus control, Mean Diff. %", "setting": "[2]; Pre-load", "result": "−15.6", "unit": "%"},
      {"measurement": "Glucose, Mean", "setting": "[2]; Pre-load", "result": 4.60, "unit": "mM"},
      {"measurement": "Glucose, Median", "setting": "[2]; Pre-load", "result": 4.40, "unit": "mM"},
      {"measurement": "pIC50", "setting": "plasma DPP IV", "result": "~8.77"}
    ]}
  ]
}
